Here are results for 9 compounds from BindingDB's records for patent US20250268854 (C/O Vesper Bio, 2025).

In test [1] the target is T1, Sortilin (Homo sapiens, UniProt Q99523).
T1 sequence (Q99523 whole entry): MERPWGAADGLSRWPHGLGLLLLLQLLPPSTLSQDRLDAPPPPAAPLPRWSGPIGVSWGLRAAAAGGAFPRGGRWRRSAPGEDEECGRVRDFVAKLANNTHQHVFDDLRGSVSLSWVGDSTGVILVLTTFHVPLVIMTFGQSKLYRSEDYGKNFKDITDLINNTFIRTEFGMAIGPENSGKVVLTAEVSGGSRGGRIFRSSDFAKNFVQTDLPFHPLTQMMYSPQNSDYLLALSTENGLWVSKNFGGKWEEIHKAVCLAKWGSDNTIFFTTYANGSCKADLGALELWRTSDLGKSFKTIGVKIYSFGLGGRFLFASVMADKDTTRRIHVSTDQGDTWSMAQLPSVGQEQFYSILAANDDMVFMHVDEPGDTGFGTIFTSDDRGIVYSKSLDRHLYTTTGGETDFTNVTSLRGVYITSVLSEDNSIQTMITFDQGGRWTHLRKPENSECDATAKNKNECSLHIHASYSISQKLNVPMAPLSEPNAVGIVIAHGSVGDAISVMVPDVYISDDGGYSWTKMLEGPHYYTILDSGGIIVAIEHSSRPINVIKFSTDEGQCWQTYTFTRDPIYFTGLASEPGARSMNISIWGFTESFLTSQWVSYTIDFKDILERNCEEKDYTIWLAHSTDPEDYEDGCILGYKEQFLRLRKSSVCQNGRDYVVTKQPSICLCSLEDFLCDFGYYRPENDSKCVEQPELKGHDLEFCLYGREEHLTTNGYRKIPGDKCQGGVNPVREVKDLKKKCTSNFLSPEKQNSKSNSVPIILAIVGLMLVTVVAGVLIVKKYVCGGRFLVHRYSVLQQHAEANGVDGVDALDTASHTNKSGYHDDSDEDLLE
Nature of the test: Neurotensin Scintillation Proximity Assay. The procedure: Compound affinity was determined by measuring the displacement of [3H]-neurotensin binding to h-Sortilin in SPA format. Total volume of 40 μl in 50 mM HEPES pH 7.4 assay buffer containing 100 mM NaCl, 2.0 mM CaCl2, 0.1% BSA and 0.1% Tween-20. […] Dose-response evaluation of compounds was performed with 8 concentrations of drugs (covering 3 decades). IC50 values were calculated by nonlinear regression using the sigmoid concentration-response (variable slope) using CDD Vault software. All values reported are average of at least 2 determinations.
(In a scintillation proximity assay essentially only radioactivity close to the scintillant gives light.)

In test [2] the target is T1, Sortilin. Nature of the test: Rapid Kinetics Assay. The procedure:
Compounds were screened at a final assay concentration of 1 μM and a final DMSO concentration was 1%. To achieve this, compounds were diluted in DMSO from 10 mM stocks to 100 μM (100×final assay concentration) then diluted 1:100 in running buffer which contained no DMSO to establish a final assay concentration of compound of 1 μM and a final DMSO concentration of 1% [DMSO].Compounds and DMSO were mixed by plate shaking at 1000 rpm for 60 seconds using a Bioshake instrument.

Structures are written as SMILES.

Compound `CC(C)(C)CC[C@H](NC1=NC2C=CC=CC2OC2C=CC=CC12)C(=O)O` (some centres undefined) [US20250268854, Example 20] had a concentration for half-maximal inhibition (IC50) against Sortilin [1] of 1490 nM.
The compound `CC(C)(C)CC[C@H](NCC1=CC(Cl)CC(Cl)=C1)C(=O)O` (some centres undefined) [US20250268854, Example 32] registered a half-inhibitory concentration (IC50) at Sortilin [1] of 840 nM.
For the compound `COc1cccc(CN[C@@H](CCC(C)(C)C)C(=O)O)c1F` [US20250268854, Example 34], the Kd on Sortilin [2] is 492 nM. This compound also returned an IC50 against Sortilin [1] of 720 nM.
The compound `CC(C)(C)CC[C@H](NCc1cc2ccccc2[nH]1)C(=O)O` [US20250268854, Example 50] gave an IC50 on Sortilin [1] of 610 nM.
In turn, `C[C@@H](N[C@@H](CCC(C)(C)C)C(=O)O)c1cccc2c1ccn2C` [US20250268854, Example 63] displayed an equilibrium dissociation constant (Kd) at Sortilin [2] of 56.7 nM. For the same compound, the IC50 against Sortilin [1] stood at 200 nM.
`C[C@H](N[C@@H](CCC(C)(C)C)C(=O)O)c1cccc2c1ccn2C` [US20250268854, Example 64] came in with a dissociation constant (Kd) at Sortilin [2] of 102 nM. For the same compound, on Sortilin [1], the half-inhibitory concentration (IC50) came out at 460 nM.
In turn, `CC(C)(C)CC[C@H](NCc1ccncn1)C(=O)O` [US20250268854, Example 136] showed a Kd at Sortilin [2] of 26400 nM. At Sortilin [1], this compound came in with a half-inhibitory concentration (IC50) of 1600 nM.
As to `CC(C)(C)CC[C@H](NCc1cccc(C#N)c1)C(=O)O` [US20250268854, Example 142], the half-maximal inhibitory concentration (IC50) against Sortilin [1] is 1260 nM.
On Sortilin [2], `COC1C=C(CN[C@@H](CCC(C)(C)C)C(=O)O)C=NC1` (some centres undefined) [US20250268854, Example 144] registered a dissociation constant (Kd) of 310 nM. For the same compound, half-maximal inhibition on Sortilin [1] (IC50) was put at 430 nM.

Broadly, the IC50 is the concentration needed to halve the response being measured. What is called Kd is the constant that tells how readily two partners part at equilibrium. A higher Kd goes with weaker binding.
